{"source": "patent US6699892B2", "about": "“Pharmaceutically acceptable salt of amlodipine and method of preparing the same” (Yung Shin Pharmaceutical Industrial Co., Ltd., priority 2002, dated 2004)", "key": {"[1]": {"assay_type": "physicochemical", "settings": "3 weeks", "protocol": "The stability of amlodipine nicotinate and amlodipine besylate was tested at 45° C. and 75° C. for 3 weeks."}, "[2]": {"settings": "aqueous solution"}, "[3]": {"assay": "Solubility in water at room temperature (saturated aqueous solution)", "assay_type": "physicochemical", "settings": "room temperature of about 25° C.", "protocol": "At the ambient temperature (room temperature of about 25° C.), a saturated aqueous solution of amlodipine nicotinate contains about 6.0 mg of the chemical per mL of water. In comparison, a saturated aqueous solution of amlodipine besylate contains about 2.0 mg of the chemical per mL of water."}, "[4]": {"settings": "listed as amlodipine nicotinate"}}, "note": "Read-outs that look alike come from different tables or passages of the source."}
{"smiles": "CCOC(=O)C1=C(COCCN)NC(C)=C(C(=O)OC)C1c1ccccc1Cl", "note": "(stereo not shown) [Amlodipine Nicotinate, amlodipine nicotinate]", "values": [{"measurement": "Stability Test (% of Sample Purity) (3-week) 45° C.", "setting": "[1]", "value": 99.7, "unit": "%"}, {"measurement": "Stability Test (% of Sample Purity) (3-week) 75° C.", "setting": "[1]", "value": 99.2, "unit": "%"}, {"measurement": "pH Value", "setting": "[2]", "value": 5.34}, {"measurement": "pH Value", "setting": "[2]; [4]", "value": 5.34}, {"measurement": "Solubility in Water at Room Temperature", "setting": "[3]", "value": 6000, "unit": "µg/mL"}, {"measurement": "Solubility in Water at Room Temperature", "setting": "[3]; [4]", "value": "about 6.0 mg/ml"}]}
{"smiles": "CCOC(=O)C1=C(COCCN)NC(C)=C(C(=O)OC)C1c1ccccc1Cl", "note": "(stereo not shown) [Amlodipine Besylate, amlodipine besylate, reference compound]", "values": [{"measurement": "Stability Test (% of Sample Purity) (3-week) 45° C.", "setting": "[1]", "value": 99.6, "unit": "%"}, {"measurement": "Stability Test (% of Sample Purity) (3-week) 75° C.", "setting": "[1]", "value": 97.8, "unit": "%"}, {"measurement": "pH Value", "setting": "[2]", "value": 6.09}, {"measurement": "Solubility in Water at Room Temperature", "setting": "[3]", "value": "about 2.0 mg/ml"}]}
